Experimental data published in PubChem BioAssay (NCI).
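Cells were grown in 96-well plates and exposed to each compound for 48 hours at five concentrations; endpoints were interpolated linearly between bracketing concentrations, or set to the highest concentration if not reached. GI50 marks 50% less growth. The concentration for full growth arrest is given as TGI.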

What was measured:
Test in all cases: NCI tumour cell line growth inhibition, 48 h
[1] = system: 786-0 renal
[2] = system: A498 renal
[3] = system: A549 NSCLC
[4] = system: ACHN renal
[5] = system: BT-549 breast
[6] = system: CAKI-1 renal
[7] = system: CCRF-CEM leukemia
[8] = system: COLO 205 colon
[9] = system: DU-145 prostate
[10] = system: EKVX NSCLC
[11] = system: HCC-2998 colon
[12] = system: HCT-116 colon
[13] = system: HCT-15 colon
[14] = system: HL-60(TB) leukemia
[15] = system: HOP-62 NSCLC
[16] = system: HOP-92 NSCLC
[17] = system: HS 578T breast
[18] = system: HT29 colon
[19] = system: IGROV1 ovarian
[20] = system: K-562 leukemia
[21] = system: KM12 colon
[22] = system: LOX IMVI melanoma
[23] = system: M14 melanoma
[24] = system: MALME-3M melanoma
[25] = system: MCF7 breast
[26] = system: MDA-MB-231 breast
[27] = system: MDA-MB-435
[28] = system: MOLT-4 leukemia
[29] = system: NCI-H226 lung
[30] = system: NCI-H23 lung
[31] = system: NCI-H460 lung
[32] = system: NCI-H522 lung
[33] = system: NCI/ADR-RES ovarian
[34] = system: OVCAR-3 ovarian
[35] = system: OVCAR-4 ovarian
[36] = system: OVCAR-5 ovarian
[37] = system: OVCAR-8 ovarian
[38] = system: PC-3 prostate
[39] = system: RPMI-8226 leukemia
[40] = system: RXF 393 renal
[41] = system: SF-268 CNS
[42] = system: SF-295 CNS
[43] = system: SF-539 CNS
[44] = system: SK-MEL-2 melanoma
[45] = system: SK-MEL-28 melanoma
[46] = system: SK-MEL-5 melanoma
[47] = system: SK-OV-3 ovarian
[48] = system: SN12C renal
[49] = system: SNB-19 CNS
[50] = system: SNB-75 CNS
[51] = system: SR leukemia
[52] = system: SW-620 colon
[53] = system: T-47D breast
[54] = system: TK-10 renal
[55] = system: U251 CNS
[56] = system: UACC-257 melanoma
[57] = system: UACC-62 melanoma
[58] = system: UO-31 renal

Work on `COC(=O)c1ccc2[nH]c(O)c(C(=Nc3ccc(N(C)C(=O)CN4CCN(C)CC4)cc3)c3cccc(OC)c3)c2c1` yielded a GI50 [1] of 0.825 µM, a TGI [1] of 2.38 µM and a GI50 [2] of 1.26 µM. It also gave a TGI [2] of 2.61 µM, a GI50 [3] of 1.39 µM and a TGI [3] of 6.42 µM. It also gave a GI50 [4] of 2.14 µM, a TGI [4] of 7.99 µM and a GI50 [5] of 1.39 µM. For the same compound, the TGI [5] was 3.47 µM, the GI50 [6] was 0.373 µM and the TGI [6] was 3.38 µM. It also gave a GI50 [7] of 0.447 µM, a TGI [7] of 6.83 µM and a GI50 [8] of 0.395 µM. For the same compound, the TGI [8] was 1.8 µM, the GI50 [9] was 1.89 µM and the TGI [9] was 9.32 µM. It also gave a GI50 [10] of 2.04 µM, a TGI [10] of 6.77 µM and a GI50 [11] of 1.65 µM. The TGI [11] was 4.98 µM, the GI50 [12] was 0.21 µM and the TGI [12] was 4.66 µM. It also gave a GI50 [13] of 1.9 µM, a TGI [13] of 7.04 µM and a GI50 [14] of 0.583 µM. It also gave a TGI [14] of 2.51 µM, a GI50 [15] of 1.21 µM and a TGI [15] of 4.78 µM. For the same compound, the GI50 [16] was 2.98 µM, the TGI [16] was 10.9 µM and the GI50 [17] was 0.213 µM. The TGI [17] was 4.13 µM, the GI50 [18] was 0.89 µM and the TGI [18] was 13.1 µM. The GI50 [19] was 0.191 µM, the TGI [19] was 2.19 µM and the GI50 [20] was 0.107 µM. It also gave a TGI [20] of 4.37 µM, a GI50 [21] of 0.0419 µM and a TGI [21] of 4.49 µM. For the same compound, the GI50 [22] was 0.654 µM, the TGI [22] was 2.3 µM and the GI50 [23] was 0.921 µM. The TGI [23] was 2.41 µM, the GI50 [24] was 1.49 µM and the TGI [24] was 2.96 µM. The GI50 [25] was 0.353 µM, the TGI [25] was 1.93 µM and the GI50 [26] was 1.31 µM. It also gave a TGI [26] of 3.27 µM, a GI50 [27] of 1.48 µM and a TGI [27] of 3.86 µM. It also gave a GI50 [28] of 0.392 µM, a TGI [28] of 3.26 µM and a GI50 [29] of 1.08 µM. For the same compound, the TGI [29] was 5.93 µM, the GI50 [30] was 1.05 µM and the TGI [30] was 3.48 µM. It also gave a GI50 [31] of 1.41 µM, a TGI [31] of 3.44 µM and a GI50 [32] of 1.03 µM. The TGI [32] was 3.89 µM, the GI50 [33] was 12.4 µM and the TGI [33] was 34 µM. The GI50 [34] was 0.96 µM, the TGI [34] was 2.57 µM and the GI50 [35] was 0.96 µM. The TGI [35] was 2.84 µM, the GI50 [36] was 2.29 µM and the TGI [36] was 5.46 µM. The GI50 [37] was 1.22 µM, the TGI [37] was 9.91 µM and the GI50 [38] was 0.631 µM. The TGI [38] was 5.87 µM, the GI50 [39] was 1.02 µM and the TGI [39] was 3.55 µM. The GI50 [40] was 0.549 µM, the TGI [40] was 1.87 µM and the GI50 [41] was 1.48 µM. It also gave a TGI [41] of 4.08 µM, a GI50 [42] of 1.12 µM and a TGI [42] of 2.63 µM. It also gave a GI50 [43] of 0.463 µM, a TGI [43] of 1.69 µM and a GI50 [44] of 1.89 µM. For the same compound, the TGI [44] was 4.51 µM, the GI50 [45] was 1.71 µM and the TGI [45] was 3.77 µM. It also gave a GI50 [46] of 1.43 µM, a TGI [46] of 2.78 µM and a GI50 [47] of 0.198 µM. It also gave a TGI [47] of 1.88 µM, a GI50 [48] of 0.346 µM and a TGI [48] of 10.8 µM. The GI50 [49] was 1.64 µM, the TGI [49] was 8.4 µM and the GI50 [50] was 0.112 µM. The TGI [50] was 1.78 µM, the GI50 [51] was 0.231 µM and the TGI [51] was 4.52 µM. The GI50 [52] was 0.429 µM, the TGI [52] was 4.95 µM and the GI50 [53] was 1.28 µM. It also gave a TGI [53] of 9.34 µM, a GI50 [54] of 1.61 µM and a TGI [54] of 3.78 µM. It also gave a GI50 [55] of 1.15 µM, a TGI [55] of 3 µM and a GI50 [56] of 2.01 µM. It also gave a TGI [56] of 4.64 µM, a GI50 [57] of 2.14 µM and a TGI [57] of 4.52 µM. It also gave a GI50 [58] of 1.54 µM and a TGI [58] of 4.05 µM.
For `Cc1ccc(SC2=C(N(C)C)C(=O)c3ccccc3C2=O)cc1`, the TGI [1] was over 32.2 µM, the TGI [2] was 50.3 µM and the TGI [3] was 30.2 µM. The TGI [4] was 21.4 µM, the TGI [5] was 26.6 µM and the TGI [6] was 9.73 µM. It also gave a TGI [7] of 17.5 µM, a TGI [8] of 51.5 µM and a TGI [9] of 23 µM. It also gave a TGI [10] of 20.1 µM, a TGI [11] of 32.4 µM and a TGI [12] of 7.26 µM. The TGI [13] was over 39.9 µM, the TGI [14] was 16.9 µM and the TGI [15] was 23.6 µM. It also gave a TGI [16] of 18.3 µM, a TGI [17] of over 27.6 µM and a TGI [18] of 31 µM. For the same compound, the TGI [19] was 17.6 µM, the TGI [20] was 7.68 µM and the TGI [21] was 16.4 µM. It also gave a TGI [22] of 24.6 µM, a TGI [23] of 16.4 µM and a TGI [24] of 18.4 µM. The TGI [25] was 17.5 µM, the TGI [26] was 20.1 µM and the TGI [27] was 1.22 µM. It also gave a TGI [28] of 12.4 µM, a TGI [29] of 25.8 µM and a TGI [30] of 10.4 µM. It also gave a TGI [31] of 18.5 µM, a TGI [32] of 10.5 µM and a TGI [33] of 6.35 µM. For the same compound, the TGI [34] was 2.96 µM, the TGI [35] was 24.8 µM and the TGI [36] was 40.3 µM. The TGI [37] was 6.44 µM, the TGI [38] was 18.7 µM and the TGI [39] was 11.7 µM. It also gave a TGI [40] of 20.8 µM, a TGI [41] of 18.4 µM and a TGI [42] of 25.6 µM. It also gave a TGI [43] of 9.71 µM, a TGI [44] of 23.5 µM and a TGI [45] of 25.8 µM. For the same compound, the TGI [46] was 8.6 µM, the TGI [47] was 41.9 µM and the TGI [48] was 16.6 µM. It also gave a TGI [49] of 29.6 µM, a TGI [50] of 43.5 µM and a TGI [51] of 3.84 µM. For the same compound, the TGI [52] was 16.1 µM, the TGI [53] was over 38 µM and the TGI [54] was 21.6 µM. The TGI [55] was 23.7 µM, the TGI [56] was 15.6 µM and the TGI [57] was 17.8 µM. It also gave a TGI [58] of 21.9 µM.
